Measured values published in patent US11547681B2, “N-acylethanolamide derivatives and uses thereof” (ELIEM THERAPEUTICS, INC., priority 2016, dated 2023).

Assay: in vitro
Conditions: male; for Measured concentration of analyte PEA, 0 min / Measured concentration of analyte PEA, 10 min / Measured concentration of analyte PEA, 20 min / Measured concentration of analyte PEA, 30 min / Measured concentration of analyte PEA, 60 min / % Remaining of Initial, 0 min / % Remaining of Initial, 10 min / % Remaining of Initial, 20 min / % Remaining of Initial, 30 min / % Remaining of Initial, 60 min / Measured concentration of PEA (analyte) / % Remaining of Initial: 1 μM; for % Remaining of Initial, 0 min / % Remaining of Initial, 10 min / % Remaining of Initial, 20 min / % Remaining of Initial, 30 min / % Remaining of Initial, 60 min / microsomal CLint at 1 μM / half-life at 1 μM / % Remaining of Initial: microsomes
Protocol: (§1) Reaction mixture, minus cofactors, was prepared as described below. Test article was added into the reaction mixture at a final concentration of 1 μM. […] An aliquot of the reaction mixture (without cofactor) was equilibrated in a shaking water bath at 37° C. for 3 minutes. The reaction was initiated by the addition of cofactor, and the mixture was incubated in a shaking water bath at 37° C. Aliquots (100 μL) were withdrawn at 0, 10, 20, 30, and 60 minutes. Test article samples were immediately combined with 300 μL of ice-cold acetonitrile containing 1% formic acid. Control samples were immediately combined with 400 μL of ice-cold 50/50 acetonitrile (ACN)/dH2O containing 0.1% formic acid and internal standard to terminate the reaction. Samples were then mixed and centrifuged to precipitate proteins. Calibration standards were prepared in matched matrix. Samples and standards were assayed by LC-MS/MS using electrospray ionization for both dosed prodrug and expected drug (PEA). Analytical conditions are outlined in Appendix 8-1. Test article concentration at each time point was compared to test article concentration at time 0 to determine the percent remaining at each time point. Half-lives were calculated using GraphPad software, fitting to a single-phase exponential decay equation.
Reaction mixture, minus cofactors, was prepared as described below. Test article was added into the reaction mixture at a final concentration of 1 μM. […] An aliquot of the reaction mixture (without cofactor) was equilibrated in a shaking water bath at 37° C. for 5 minutes. Reaction was initiated by the addition of cofactor, and the mixture was incubated in a shaking water bath at 37° C. Aliquots (100 μL) were withdrawn at 0, 10, 20, 30, and 60 minutes. Test article samples were immediately combined with 300 μL of ice-cold acetonitrile containing 1% formic acid. Control samples were immediately combined with 400 μL of ice-cold 50/50 acetonitrile (ACN)/dH2O containing 0.1% formic acid and internal standard to terminate the reaction. Samples were then mixed and centrifuged to precipitate proteins. Calibration standards were prepared in matched matrix. Samples and standards were assayed by LC-MS/MS using electrospray ionization for both the dosed prodrug and the expected drug (PEA). Analytical conditions are outlined in Appendix 10-1. Test article concentration at each time point was compared to the test article concentration at time 0 to determine the percent remaining at each time point. Half-lives were calculated using GraphPad software, fitting to a single-phase exponential decay equation.
as §1, with “minutes. Reaction” for “minutes. The reaction”, “300 μL,” for “300 μL”, “Appendix 13-1.” for “Appendix 8-1.”
Reaction mixture, minus cofactors, was prepared as described below.

[1] = CD-1, mouse, calculated value in parentheses
[2] = CD-1, mouse, Calculated half-life (in parentheses)

Row | SMILES | Measured concentration of analyte PEA, 0 min (Beagle, dog, 0 min) | Measured concentration of analyte PEA, 10 min (Beagle, dog, 10 min) | Measured concentration of analyte PEA, 20 min (Beagle, dog, 20 min) | Measured concentration of analyte PEA, 30 min (Beagle, dog, 30 min) | Measured concentration of analyte PEA, 60 min (Beagle, dog, 60 min) | % Remaining of Initial, 0 min (Beagle, dog, 0 h) | % Remaining of Initial, 10 min (Beagle, dog, 10 min) | % Remaining of Initial, 20 min (Beagle, dog, 20 min) | % Remaining of Initial, 30 min (Beagle, dog, 0.5 h) | % Remaining of Initial, 60 min (Beagle, dog, 1 h) | microsomal CLint at 1 μM (Beagle, dog) | half-life at 1 μM (Beagle, dog, Half-life) | Measured concentration of analyte PEA, 0 min (CD-1, mouse, 0 min) | Measured concentration of analyte PEA, 10 min (CD-1, mouse, 10 min) | Measured concentration of analyte PEA, 20 min (CD-1, mouse, 20 min) | Measured concentration of analyte PEA, 30 min (CD-1, mouse, 30 min) | Measured concentration of analyte PEA, 60 min (CD-1, mouse, 60 min) | % Remaining of Initial, 0 min (CD-1, mouse, 0 h) | microsomal CLint at 1 μM (CD-1, mouse) | half-life at 1 μM (CD-1, mouse, Half-life) | also measured
1 | CCCCCCCCCCCCCCCC(=O)NCCOC(=O)CCC [Compound I-2] | 0.23 µM | 0.48 µM | 0.38 µM | 0.29 µM | 0.17 µM | 100% | 5.4% | <1.0% | <1.0% | <1.0% | 581 µL/min/mg | 2.4 min | 0.48 µM | 0.34 µM | 0.19 µM | 0.12 µM | 0.023 µM | 100% | > 1380 µL/min/mg | < 1 min | % Remaining of Initial, 10 min (CD-1, mouse, 10 min): <1.0%; % Remaining of Initial, 20 min (CD-1, mouse, 20 min): <1.0%; % Remaining of Initial, 30 min (CD-1, mouse, 0.5 h): <1.0%; % Remaining of Initial, 60 min (CD-1, mouse, 1 h): <1.0%
2 | CCCCCCCCCCCCCCCC(=O)NCCOC(=O)CCC(=O)OCC(COC(=O)CCCCCCC)OC(=O)CCCCCCC (stereo not drawn) [Compound I-3, PEA-Succinate-Glycerol-Di-Caprylic] | 0.00074 µM | 0.023 µM | 0.037 µM | 0.042 µM | 0.053 µM | 100% | 94% | 85% | 85% | 74% | < 23.1 µL/min/mg | > 60 min | 0.0079 µM | 0.025 µM | 0.025 µM | 0.042 µM | 0.025 µM | 100% | < 23.1 µL/min/mg | > 60 min | % Remaining of Initial, 10 min (CD-1, mouse, 10 min): 82%; % Remaining of Initial, 20 min (CD-1, mouse, 20 min): 83%; % Remaining of Initial, 30 min (CD-1, mouse, 0.5 h): 60%; % Remaining of Initial, 60 min (CD-1, mouse, 1 h): 70%; microsomal CLint at 1 μM [1]: 13.8 µL/min/mg; half-life at 1 μM [2]: 100 min
3 | CC/C=C\C/C=C\C/C=C\C/C=C\C/C=C\CCCC(=O)OCCNC(=O)CCCCCCCCCCCCCCC [Compound I-5] | 0.025 µM | 0.081 µM | 0.090 µM | 0.087 µM | 0.063 µM | 100% | 84% | 75% | 75% | 67% | < 23.1 µL/min/mg | > 60 min | 0.048 µM | 0.080 µM | 0.052 µM | 0.048 µM | 0.024 µM | 100% | 23.6 µL/min/mg | 59 min | microsomal CLint at 1 μM (Beagle, dog, calculated value in parentheses): 13.3 µL/min/mg; half-life at 1 μM (Beagle, dog, Calculated half-life (in parentheses)): 104 min; % Remaining of Initial, 10 min (CD-1, mouse, 10 min): 72%; % Remaining of Initial, 20 min (CD-1, mouse, 20 min): 57%; % Remaining of Initial, 30 min (CD-1, mouse, 0.5 h): 56%; % Remaining of Initial, 60 min (CD-1, mouse, 1 h): 55%
4 | CCCCC/C=C\C/C=C\CCCCCCCC(=O)OCCNC(=O)CCCCCCCCCCCCCCC [Compound I-6] | 0.030 µM | 0.087 µM | 0.091 µM | 0.080 µM | 0.084 µM | 100% | 103% | 100% | 91% | 77% | < 23.1 µL/min/mg | > 60 min | 0.022 µM | 0.055 µM | 0.039 µM | 0.041 µM | 0.027 µM | 100% | < 23.1 µL/min/mg | > 60 min | % Remaining of Initial, 10 min (CD-1, mouse, 10 min): 84%; % Remaining of Initial, 20 min (CD-1, mouse, 20 min): 74%; % Remaining of Initial, 30 min (CD-1, mouse, 0.5 h): 73%; % Remaining of Initial, 60 min (CD-1, mouse, 1 h): 61%; microsomal CLint at 1 μM [1]: 16.4 µL/min/mg; half-life at 1 μM [2]: 84 min
5 | CCCCCCCCCCCCCCCC(=O)NCCOC(=O)CCC(=O)OC[C@H]1O[C@@](CO)(O[C@H]2O[C@H](CO)[C@@H](O)[C@H](O)[C@H]2O)[C@@H](O)[C@@H]1O [Compound I-7] | 0.59 µM | 0.50 µM | 0.47 µM | 0.38 µM | 0.20 µM | 100% | 1.6% | 1.4% | 1.3% | <1.0% | 823 µL/min/mg | 1.7 min | 0.28 µM | 0.29 µM | 0.18 µM | 0.11 µM | 0.034 µM | 100% | 814 µL/min/mg | 1.7 min | % Remaining of Initial, 10 min (CD-1, mouse, 10 min): 1.7%; % Remaining of Initial, 20 min (CD-1, mouse, 20 min): 1.2%; % Remaining of Initial, 30 min (CD-1, mouse, 0.5 h): <1.0%; % Remaining of Initial, 60 min (CD-1, mouse, 1 h): <1.0%
6 | CCCCCCCCCCCCCCCC(=O)NCCOC(=O)CCC(=O)OC(CO)CO [Compound I-8] | – | – | – | – | – | – | – | – | – | – | > 1380 µL/min/mg | < 1 min | – | – | – | – | – | – | > 1380 µL/min/mg | < 1 min | Measured concentration of PEA (analyte) (Beagle, dog, 0 min): 0.33 µM; Measured concentration of PEA (analyte) (Beagle, dog, 10 min): 0.54 µM; Measured concentration of PEA (analyte) (Beagle, dog, 20 min): 0.46 µM; Measured concentration of PEA (analyte) (Beagle, dog, 30 min): 0.44 µM; Measured concentration of PEA (analyte) (Beagle, dog, 60 min): 0.20 µM; % Remaining of Initial (Beagle, dog, 0 h): 100%; % Remaining of Initial (Beagle, dog, 10 min): <1.0%; % Remaining of Initial (Beagle, dog, 20 min): <1.0%; % Remaining of Initial (Beagle, dog, 0.5 h): <1.0%; % Remaining of Initial (Beagle, dog, 1 h): <1.0%; Measured concentration of PEA (analyte) (CD-1, mouse, 0 min): 0.45 µM; Measured concentration of PEA (analyte) (CD-1, mouse, 10 min): 0.30 µM; Measured concentration of PEA (analyte) (CD-1, mouse, 20 min): 0.15 µM; Measured concentration of PEA (analyte) (CD-1, mouse, 30 min): 0.086 µM; Measured concentration of PEA (analyte) (CD-1, mouse, 60 min): 0 µM; % Remaining of Initial (CD-1, mouse, 0 h): 100%; % Remaining of Initial (CD-1, mouse, 10 min): <1.0%; % Remaining of Initial (CD-1, mouse, 20 min): <1.0%; % Remaining of Initial (CD-1, mouse, 0.5 h): <1.0%; % Remaining of Initial (CD-1, mouse, 1 h): <1.0%
